Results from patent US20210137883A1, “ANTI-NEOPLASTIC COMPOUNDS AND METHODS TARGETING QSOX1” (ARIZONA BOARD OF REGENTS ON BEHALF OF ARIZONA STATE …, priority 2015, published 2021).
Entries after “also recorded” stand apart in the source; their conditions may differ.

Tests used:
786-O cells = assay: Boyden chamber invasion through Matrigel, 786-O kidney cancer cells; format: cell-based; settings: dose-dependent; FIG. 11
Text: FIG. 11. Effect of Compound SBI-0143183 on Kidney cancer invasion through Matrigel (786-0).

[1] = test system: MIAPaCa2 pancreatic tumor cells; assay: Boyden chamber invasion through Matrigel, MIAPaCa2; format: cell-based; settings: FIG. 13
myeloma cell lines = assay: MTT assay on myeloma cell lines; format: cell-based; settings: 2-fold serial dilutions, at higher doses, FIG. 15
Experimental: FIG. 15. MTT assay results from exposure of myeloma cell lines to SBI-183. Assay conditions: 25,000 cells per well were plated in a 96-well flat-bottom plate. 2-fold serial dilutions of SBI-183 were added to each well. % cell viability was calculated using the following formula: cmpd+cells/vehicle+cells*100%.

[2] = test system: MCF-10A breast cancer cell lines containing mutant p53; assay: Boyden chamber invasion through Matrigel, MCF-10A p53 breast cell lines; format: cell-based; settings: FIG. 13
Text: FIG. 13. […] P530E is MCF-10A non-malignant breast cell line containing wild type (non-mutated) p53. R248W, R273C and Y220C are three different p53 mutants expressed in MCF-10A breast cells.

recombinant QSOX1 = target: T1, recombinant QSOX1 (Homo sapiens, UniProt O00391); assay: Fluorogenic HTS assay for QSOX1 inhibitors (H2O2 detection, RNAse A substrate); format: biochemical; settings: library screen with recombinant QSOX1
T1 construct: made in house
T1 sequence (O00391 30-747): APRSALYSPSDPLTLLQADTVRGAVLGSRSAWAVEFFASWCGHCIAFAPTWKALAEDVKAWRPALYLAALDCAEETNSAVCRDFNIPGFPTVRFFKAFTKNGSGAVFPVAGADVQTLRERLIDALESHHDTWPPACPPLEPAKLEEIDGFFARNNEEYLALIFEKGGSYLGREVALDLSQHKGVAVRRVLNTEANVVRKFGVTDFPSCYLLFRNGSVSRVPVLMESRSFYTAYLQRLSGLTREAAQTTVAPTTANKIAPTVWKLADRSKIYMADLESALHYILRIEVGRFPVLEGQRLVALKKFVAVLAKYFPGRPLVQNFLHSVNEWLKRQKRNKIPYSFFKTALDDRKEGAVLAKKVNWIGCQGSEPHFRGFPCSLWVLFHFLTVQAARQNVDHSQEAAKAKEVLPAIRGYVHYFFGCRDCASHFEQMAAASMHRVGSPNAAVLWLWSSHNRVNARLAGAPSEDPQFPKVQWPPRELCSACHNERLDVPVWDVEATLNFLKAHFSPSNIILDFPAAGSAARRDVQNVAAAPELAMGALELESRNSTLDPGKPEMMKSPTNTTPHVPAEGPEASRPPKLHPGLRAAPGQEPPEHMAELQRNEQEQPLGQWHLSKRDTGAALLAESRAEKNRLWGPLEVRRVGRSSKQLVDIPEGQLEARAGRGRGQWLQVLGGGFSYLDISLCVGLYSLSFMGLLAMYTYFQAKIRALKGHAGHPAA
Experimental: FIG. 7. An in vitro assay to screen for QSOX1 inhibitors; Fluorogenic assay (also can be HTS). Enzymatically active recombinant QSOX1 is incubated with individual compounds in individual wells of a 384 well plate. […] Therefore, no fluorescence is observed.
In screening for inhibitors, recombinant QSOX1 was produced and tested in fluorogenic assays to make sure it was active. The recombinant enzyme then was sent to the Sanford Burnham Institute for use in the same/similar assay to screen libraries for chemical compounds that inhibit the enzymatic activity of QSOX1.
A peptide was identified in plasma from pancreatic cancer patients that mapped back to the QSOX1 parent protein (FIG. 1, prior art). […] A high throughput screening assay (HTS) was employed to screen a library of chemical compounds (50,000 compounds). The assay detects H2O2 produced by QSOX1 when it is enzymatically active (FIG. 7). Inhibition of the enzymatic activity of QSOX1 (with a chemical compound) suppresses H2O2 production, decreasing fluorescent or bioluminescent signal in the assay.

786-O = assay: Detection of laminin-α4 deposition with anti-LAMA4 antibody in kidney cancer cells; format: cell-based; settings: 15 uM SBI-183; 786-O kidney cancer cells; FIG. 12
Experimental: FIG. 12. 786-O Detection of laminin-α4 using anti-LAMA4 antibody in kidney cancer cells after incubation with 15uM SBI-183. […] Secondary alone indicates the goat anti-mouse antibody that was used to detect binding of anti-LAMA4.

[3] = test system: UOK117 renal cell carcinoma xenografts; assay: UOK117 renal cell carcinoma xenografts in nude mice; format: in vivo; settings: oral lavage 20 mg/kg/day from day 7, compared to vehicle-treated and untreated mice, FIG. 14
Experimental: FIG. 14. […] Mice were inoculated with 1 million tumor cells in the hind flank. Treatment was started on day 7 by oral lavage at 20 mg/kg/day.

SMILES: COc1cccc(C(=O)Nc2ccc(N3CCCC3)cc2)c1 [SBI-183, 3-methoxy-N-[4-(1-pyrrolidinyl)phenyl]benzamide]
- invasion of 786-O cells through Matrigel (786-O cells): suppressed invasion
- invasion through Matrigel of MIAPaCa2 pancreatic tumor cells [1]: suppresses invasion
- cell viability (MTT) (myeloma cell lines): decreased viability
- invasion through Matrigel of MCF-10A breast cell lines (p53 overexpress and mutant p53 R248W, R273C, Y220C) [2]: suppresses invasion
- inhibition of the enzymatic activity of QSOX1 (recombinant QSOX1): inhibitor
- deposition of laminin-α4 into the extracellular matrix (786-O): not deposited; also recorded: inhibits deposition
- growth of UOK117 renal cell carcinoma xenografts [3]: suppresses the growth
